Where no end group is shown, it is not given here.
Test system: ICAM-1 expression in HUVECs
Experiment: ICAM-1 expression in HUVECs chronically treated with CRH, then PMA
Assay type: cell-based, Human
Settings: data not shown
Experimental: Following this, the cells were oxidatively stressed for 24 hours with 1 μM PMA (Sigma P8139).
Receptor antagonists were added to the cells during the pre-treatment period. These included the Glucocorticoid Receptor Antagonist; 2 μM Mifepristone (Sigma M8046) and two CRH receptor antagonists; 200 nM Astressin (Sigma A4933) and 200 nM α-helical CRF peptide antagonist (Sigma C2917).
ICAM-1 protein in each cell lysate was estimated using the Human sICAM-1 DuoSet ELISA kit (R&D Systems DY720) according to the manufacturer's instructions.
The capture antibody was diluted to a final concentration of 4 μg/ml in PBS and 100 μl was used to coat each well of a 96-well microtitre plate overnight at room temperature. The plate was then washed three times with wash buffer (0.05% Tween 20 in PBS). Each well received 300 μl of blocking buffer (1% BSA, 5% sucrose and 0.05% sodium azide in PBS), and the plate was incubated at room temperature for 1 hour before being washed as before. Each cell lysate was then diluted 1/200 in reagent diluent (1% BSA in PBS) and 100 μl added to duplicate wells of the antibody coated plate. Eight ICAM-1 standards were prepared in reagent diluent, at concentrations ranging from 0 to 1000 pg/ml, and duplicate 100 μl standards were added to the appropriate wells on the plate. A separate set of standards was routinely used for each plate. The plate was incubated at room temperature for 2 hours before being washed again. 100 μl of detection antibody, diluted to a final concentration of 100 ng/ml, was added to each well and the plate incubated at room temperature for 2 hours. […] The absorbance of the plates was measured at 450 nm with the correction wavelength set at 570 nm.
A standard curve was plotted of mean absorbance versus ICAM-1 concentration and the line of best fit calculated by regression analysis. The unknown concentration of ICAM-1 in the samples was calculated from this, taking the lysate dilution factor into account.
To normalise for differences in cell number and total protein concentration, the final result was expressed as ng ICAM-1 per mg of total protein. […]

Substance | Change in ICAM-1 secretion after chronic CRH treatment (1 to 100 nM CRH daily for 5 days, then PMA, vs untreated cells) | Effect on increased induction of ICAM-1 post-oxidative stress (200 nM CRH receptor antagonist during 5-day CRH pre-treatment, then PMA) | Level of ICAM-1 relative to that induced by oxidative stress after pre-treatment with CRH for five days (200 nM CRH receptor antagonist during CRH pre-treatment)
CRH: Corticotrophin Releasing Hormone, Calbiochem 05-23-0050 (SEEPPISLDLTFHLLREVLEMARAEQLAQQAHSNRKLMEII; ends and bridges not checked; UniProt P06850 154-194, looked up) | significant increase |  | 
astressin |  | only partially blocked | approximately half
